{"source": "patent US20190209509A1", "about": "“Hepatoprotective potential of Calebin A” (priority 2018, published 2019)", "key": {"[1]": {"test_system": "C2C12 myotubes (muscle cells)", "assay": "Glucose uptake assay (2-NBDG, flow cytometry) in muscle cells", "assay_type": "cell-based", "conditions": "concentration printed as 3004, versus Metformin 200 μM", "method": "The skeletal muscle cell line C2C12 myoblasts (procured from ATCC) were maintained in DMEM supplemented with 10% Fetal Bovine Serum at 37° C. with 5% CO2. Twenty thousand cells per well were seeded in a 24 well plate. When the cells reached 80-90% confluence, differentiation was induced by replacing the growth medium with DMEM containing 1% horse serum. Experiments were performed in completely differentiated C2C12 myotubes after 4-5 days in differentiation medium. Cells were then treated with 0.5% BSA in low glucose media for 16 hours and washed with cold Krebs-Ringer phosphate buffer without glucose. Cells were then treated with different non cytotoxic concentrations of samples in low glucose DMEM media with or without insulin at a concentration of 0.1 μM for 30 minutes at 37° C. Cells were then washed with cold PBS and stained with 5 μM of a fluorescent D-glucose analog 2-[N-(7-nitrobenz-2-oxa-1,3-diazol-4-yl) amino]-2-deoxy-D-glucose (2-NBDG) for 15 minutes in dark followed by flow cytometric detection of fluorescence produced by the cells (FIG. 3)"}, "adipocytes": {"test_system": "adipocytes", "assay": "Glucose uptake assay in adipocytes", "assay_type": "cell-based", "conditions": "concentration printed as 3004, versus Metformin 200 μM"}, "HepG2 cells [2]": {"test_system": "HepG2 cells", "assay": "Protection from acetaminophen (paracetamol) induced toxicity, Sulphorhodamine B assay", "assay_type": "cell-based, Human", "conditions": "6.25 μM, acetaminophen 4 mM, 72 hours", "method": "(§1) Human HepG2 cells (procured from NCCS, Pune) were cultured in Dulbecco's Modified Eagle Medium (DMEM) supplemented with 10% fetal bovine serum (FBS), 40 μgml^−1 gentamycin at 37° C. in an atmosphere of 5% CO2. When the cells reached 80-90% confluence, they were trypsinized and plated at 5000 cells per well in a 96-well microplate. After 24 hours of seeding, acetaminophen at a concentration of 4 mM was added along with different non cytotoxic concentrations of Calebin. Sulphorhodamine B assay was performed after 72 hours of treatment to determine the number of viable cells and percentage protection was calculated (FIG. 2)."}, "HepG2 cells [3]": {"test_system": "HepG2 cells", "assay": "Protection from alcohol induced toxicity, Sulphorhodamine B assay", "assay_type": "cell-based, Human", "conditions": "alcohol 1000 mM, 72 hours", "method": "as §1, with “seeding, alcohol” for “seeding, acetaminophen”, “of 1000” for “of 4”, “(FIG. 1).” for “(FIG. 2).”"}}, "data": [{"smiles": "COc1cc(/C=C/C(=O)COC(=O)/C=C/c2ccc(O)c(OC)c2)ccc1O", "note": "[Calebin A]", "values": [{"measurement": "increase in glucose uptake", "setting": "[1]", "value": "almost as effective as Metformin"}, {"measurement": "increase in glucose uptake", "setting": "adipocytes", "value": "almost as effective as Metformin"}, {"measurement": "percentage protection against acetaminophen induced toxicity", "setting": "HepG2 cells [2]", "value": "about 15%"}, {"measurement": "percentage protection from alcohol induced toxicity", "setting": "HepG2 cells [3]; 6.25 μM", "value": "about 14%"}, {"measurement": "percentage protection from alcohol induced toxicity", "setting": "HepG2 cells [3]; 12.5 μM", "value": 30, "unit": "%"}, {"measurement": "percentage protection from alcohol induced toxicity", "setting": "HepG2 cells [3]; progressively higher concentration, printed 6.25 μM", "value": 23, "unit": "%"}]}]}
